Test results: patent publication US8877747B2, “Indenone derivative and pharmaceutical composition comprising same” (Korea Research Institute of Chemical Technology, priority 2009, dated 2014)
Where a name gives a salt, the structure may show the parent alone.

System: MC3T3-E1 cells
Experiment: ALP activity, differentiation of osteoblast cells
Type: cell-based
Conditions: Mus musculus, MC3T3-E1, 144 h; MC3T3E1 cells treated with 10 μM compound and OF; relates activity to OF-only group (100%); higher = more efficacious
Description: To examine the effects of the inventive indenone derivatives on the differentiation and activation of osteoblast cells, the activity and expression of alkaline phosphatase (ALP), a marker for the differentiation of osteoblast cells, and the bone nodule formation using a mouse derived osteoblast-like cells, MC3T3-E1 (ATCC, Japan) or a primary mouse calvaria derived preosteoblastic cells were observed.
MC3T3-E 1 cells were seeded in a medium containing osteogenic factors (OF) such as ascorbic acids and β-glycerophosphates (b-GP), and each compound of Examples was added thereto at a concentration of 0.1, 1 and 10 μM. The cells were incubated for 6 days (MC3T3-E1 cells) or 7 days (primary mouse calvaria derived preosteoblastic cells) in a 37° C. CO2 incubator. Then, the culture medium was replaced with a fresh medium together with the test compound every two or three days. On the last day, the medium was centrifuged to remove the supernatant, and the cells were washed with PBS. The washed cells were subjected to a 3-cycle freege-thaw treatment using a −70° C. deep freezer to allow enzymes elute in a lysis buffer. The lysed protein was quantified, followed by measurement of ALP activity using 4-nitrophenylphosphate.
Further, a group treated only with DMSO or OF was tested for ALP activities for comparison.

**Q.** Which activity at 10 µM does the source give for COc1ccc(C2=C(c3ccccc3)c3ccc(OCCN4CCOCC4)cc3C2=O)cc1F [Example 2, 6-(2-morpholinoethoxy)-2-(3-fluoro-4-methoxyphenyl)-3-phenyl-1H-inden-1-one] here?
**A.** 221%

**Q.** How did the activity at 10 µM turn out when O=C1C(c2cnc3ccccc3c2)=C(c2ccccc2)c2ccc(OCCN3CCOCC3)cc21 [Example 3, 6-(2-morpholinoethoxy)-3-phenyl-2-(quinolin-3-yl)-1H-inden-1-one] was run?
**A.** 216%

**Q.** NC(=O)c1ccc(C2=C(c3ccccc3)c3ccc(OCCN4CCOCC4)cc3C2=O)cc1 [Example 4, 4-(6-(2-morpholinoethoxy)-1-oxo-3-phenyl-1H-inden-2-yl)benzamide] was tested. Which activity at 10 µM did it give?
**A.** 128%

**Q.** For N#Cc1cccc(C2=C(c3ccccc3)c3ccc(OCCN4CCOCC4)cc3C2=O)c1 [Example 5, 3-(6-(2-morpholinoethoxy)-1-oxo-3-phenyl-1H-inden-2-yl)benzonitrile], which activity at 10 µM is on record?
**A.** 44%

**Q.** For COc1ccc(C2=C(c3ccccc3)c3ccc(OCCN4CCOCC4)cc3C2=O)cn1 [Example 6, 6-(2-morpholinoethoxy)-2-(6-methoxypyridin-3-yl)-3-phenyl-1H-inden-1-one], which activity at 10 µM is on record?
**A.** 63%

**Q.** O=C1C(c2ccc(F)nc2)=C(c2ccccc2)c2ccc(OCCN3CCOCC3)cc21 [Example 9, 6-(2-morpholinoethoxy)-2-(6-fluoropyridin-3-yl)-3-phenyl-1H-inden-1-one] was tested. Which activity at 10 µM did it give?
**A.** 87%

**Q.** Which activity at 10 µM does the source give for O=C1C(c2ccc(-c3ccccc3)cc2)=C(c2ccccc2)c2ccc(OCCN3CCOCC3)cc21 [Example 10, 6-(2-morpholinoethoxy)-2-(4-(phenyl)phenyl)-3-phenyl-1H-inden-1-one] here?
**A.** 172%

**Q.** With Cc1ccc(C2=C(c3ccccc3)c3ccc(OCCN4CCOCC4)cc3C2=O)cc1 [Example 11, 6-(2-morpholinoethoxy)-3-phenyl-2-p-tolyl-1H-inden-1-one] as the compound, how does the activity at 10 µM read?
**A.** 649%

**Q.** With N#Cc1ccccc1C1=C(c2ccccc2)c2ccc(OCCN3CCOCC3)cc2C1=O [Example 12, 2-(6-(2-morpholinoethoxy)-1-oxo-3-phenyl-1H-inden-2-yl)benzonitrile] as the compound, how does the activity at 10 µM read?
**A.** 365%

**Q.** With O=C1C(c2ccc(C(F)(F)F)cc2)=C(c2ccccc2)c2ccc(OCCN3CCOCC3)cc21 [Example 13, 6-(2-morpholinoethoxy)-2-(4-(trifluoromethyl)phenyl)-3-phenyl-1H-inden-1-one] as the compound, how does the activity at 10 µM read?
**A.** 151%

**Q.** How did the activity at 10 µM turn out when CC(=O)Nc1cccc(C2=C(c3ccccc3)c3ccc(OCCN4CCOCC4)cc3C2=O)c1 [Example 14, N-(3-(6-(2-morpholinoethoxy)-1-oxo-3-phenyl-1H-inden-2-yl)phenyl)acetamide] was run?
**A.** 131%

**Q.** For O=C1C(c2cncc3ccccc23)=C(c2ccccc2)c2ccc(OCCN3CCOCC3)cc21 [Example 15, 6-(2-morpholinoethoxy)-2-(isoquinolin-4-yl)-3-phenyl-1H-inden-1-one], which activity at 10 µM is on record?
**A.** 65%

**Q.** How did the activity at 10 µM turn out when O=C1C(c2ccc3ccccc3c2)=C(c2ccccc2)c2ccc(OCCN3CCOCC3)cc21 [Example 16, 6-(2-morpholinoethoxy)-2-(naphthalen-3-yl)-3-phenyl-1H-inden-1-one] was run?
**A.** 713%

**Q.** For O=C1C(c2ccc(F)cc2)=C(c2ccccc2)c2ccc(OCCN3CCOCC3)cc21 [Example 17, 6-(2-morpholinoethoxy)-2-(4-fluorophenyl)-3-phenyl-1H-inden-1-one], which activity at 10 µM is on record?
**A.** 236%

**Q.** For O=C1C(c2ccc(F)c(F)c2)=C(c2ccccc2)c2ccc(OCCN3CCOCC3)cc21 [Example 18, 6-(2-morpholinoethoxy)-2-(3,4-difluorophenyl)-3-phenyl-1H-inden-1-one], which activity at 10 µM is on record?
**A.** 349%

**Q.** For Cc1ccc(C2=C(c3ccccc3)c3ccc(OCCN4CCOCC4)cc3C2=O)cc1F [Example 19, 6-(2-morpholinoethoxy)-2-(3-fluoro-4-methylphenyl)-3-phenyl-1H-inden-1-one], which activity at 10 µM is on record?
**A.** 220%

**Q.** For Nc1cccc(C2=C(c3ccccc3)c3ccc(OCCN4CCOCC4)cc3C2=O)c1 [Example 20, 6-(2-morpholinoethoxy)-2-(3-aminophenyl)-3-phenyl-1H-inden-1-one], which activity at 10 µM is on record?
**A.** 283%

**Q.** How did the activity at 10 µM turn out when O=C1C(c2ccc(Oc3ccccc3)cc2)=C(c2ccccc2)c2ccc(OCCN3CCOCC3)cc21 [Example 21, 6-(2-morpholinoethoxy)-2-(4-phenoxyphenyl)-3-phenyl-1H-inden-1-one] was run?
**A.** 130%

**Q.** With COc1ccc(C2=C(c3ccccc3)c3ccc(OCCN4CCOCC4)cc3C2=O)cc1 [Example 22, 6-(2-morpholinoethoxy)-2-(4-methoxyphenyl)-3-phenyl-1H-inden-1-one] as the compound, how does the activity at 10 µM read?
**A.** 169%

**Q.** O=C1C(c2ccc(Cl)cc2)=C(c2ccccc2)c2ccc(OCCN3CCOCC3)cc21 [Example 23, 6-(2-morpholinoethoxy)-2-(4-chlorophenyl)-3-phenyl-1H-inden-1-one] was tested. Which activity at 10 µM did it give?
**A.** 162%

**Q.** With O=C1C(c2cccnc2)=C(c2ccc(F)cc2)c2ccc(OCCN3CCOCC3)cc21 [Example 24, 6-(2-morpholinoethoxy)-3-(4-fluorophenyl)-2-(pyridin-3-yl)-1H-inden-1-one] as the compound, how does the activity at 10 µM read?
**A.** 121%

**Q.** With O=C1C(c2cncnc2)=C(c2ccc(F)cc2)c2ccc(OCCN3CCOCC3)cc21 [Example 25, 6-(2-morpholinoethoxy)-3-(4-fluorophenyl)-2-(pyrimidin-5-yl)-1H-inden-1-one] as the compound, how does the activity at 10 µM read?
**A.** 105%

**Q.** Which activity at 10 µM does the source give for O=C1C(c2ccc(F)c(F)c2)=C(c2ccc(F)cc2)c2ccc(OCCN3CCOCC3)cc21 [Example 26, 6-(2-morpholinoethoxy)-2-(3,4-difluorophenyl)-3-(4-fluorophenyl)-1H-inden-1-one] here?
**A.** 79%

**Q.** O=C1C(c2ccc(C(F)(F)F)cc2)=C(c2ccc(F)cc2)c2ccc(OCCN3CCOCC3)cc21 [Example 27, 6-(2-morpholinoethoxy)-2-(4-(trifluoromethyl)phenyl)-3-(4-fluorophenyl)-1H-inden-1-one] was tested. Which activity at 10 µM did it give?
**A.** 75%

**Q.** For O=C1C(c2cccnc2)=C(c2ccc(Cl)cc2)c2ccc(OCCN3CCOCC3)cc21 [Example 28, 6-(2-morpholinoethoxy)-3-(4-chlorophenyl)-2-(pyridin-3-yl)-1H-inden-1-one], which activity at 10 µM is on record?
**A.** 134%

**Q.** How did the activity at 10 µM turn out when O=C1C(c2ccc(F)c(F)c2)=C(c2ccc(Cl)cc2)c2ccc(OCCN3CCOCC3)cc21 [Example 29, 6-(2-morpholinoethoxy)-3-(4-chlorophenyl)-2-(3,4-difluorophenyl)-1H-inden-1-one] was run?
**A.** 84%

**Q.** Which activity at 10 µM does the source give for O=C1C(c2cncnc2)=C(c2ccc(Cl)cc2)c2ccc(OCCN3CCOCC3)cc21 [Example 30, 6-(2-morpholinoethoxy)-3-(4-chlorophenyl)-2-(pyrimidin-5-yl)-1H-inden-1-one] here?
**A.** 150%

**Q.** How did the activity at 10 µM turn out when O=C1C(c2ccc(C(F)(F)F)cc2)=C(c2ccc(C(F)(F)F)cc2)c2ccc(OCCN3CCOCC3)cc21 [Example 33, 6-(2-morpholinoethoxy)-2,3-bis(4-(trifluoromethyl)phenyl)-1H-inden-1-one] was run?
**A.** 65%

**Q.** With O=C1C(c2ccc(F)c(F)c2)=C(c2ccc(C(F)(F)F)cc2)c2ccc(OCCN3CCOCC3)cc21 [Example 34, 6-(2-morpholinoethoxy)-3-(4-(trifluoromethyl)phenyl)-2-(3,4-difluorophenyl)-1H-inden-1-one] as the compound, how does the activity at 10 µM read?
**A.** 78%

**Q.** O=C1C(c2cncnc2)=C(c2ccc(C(F)(F)F)cc2)c2ccc(OCCN3CCOCC3)cc21 [Example 35, 6-(2-morpholinoethoxy)-3-(4-(trifluoromethyl)phenyl)-2-(pyrimidin-5-yl)-1H-inden-1-one] was tested. Which activity at 10 µM did it give?
**A.** 79%

**Q.** How did the activity at 10 µM turn out when O=C1C(c2cccnc2)=C(c2cc(F)cc(F)c2)c2ccc(OCCN3CCOCC3)cc21 [Example 36, 6-(2-morpholinoethoxy)-3-(3,5-difluorophenyl)-2-(pyridin-3-yl)-1H-inden-1-one hydrochloride salt] was run?
**A.** 224%

**Q.** For O=C1C(c2ccc(C(F)(F)F)cc2)=C(c2cc(F)cc(F)c2)c2ccc(OCCN3CCOCC3)cc21 [Example 37, 6-(2-morpholinoethoxy)-2-(4-(trifluoromethyl)phenyl)-3-(3,5-difluorophenyl)-1H-inden-1-one], which activity at 10 µM is on record?
**A.** 80%

**Q.** O=C1C(c2ccc(F)c(F)c2)=C(c2cc(F)cc(F)c2)c2ccc(OCCN3CCOCC3)cc21 [Example 38, 6-(2-morpholinoethoxy)-2-(3,4-difluorophenyl)-3-(3,5-difluorophenyl)-1H-inden-1-one] was tested. Which activity at 10 µM did it give?
**A.** 77%

**Q.** How did the activity at 10 µM turn out when O=C1C(c2cncnc2)=C(c2cc(F)cc(F)c2)c2ccc(OCCN3CCOCC3)cc21 [Example 39, 6-(2-morpholinoethoxy)-3-(3,5-difluorophenyl)-2-(pyrimidin-5-yl)-1H-inden-1-one] was run?
**A.** 92%

**Q.** How did the activity at 10 µM turn out when C[n+]1cccc(C2=C(c3ccccc3)c3ccc(OCC[N+]4(C)CCOCC4)cc3C2=O)c1 [Example 40, 4-methyl-4-(2-{[2-(1-methylpyridin-1-ium-3-yl)-1-oxo-3-phenyl-1H-inden-6-yl]oxy}ethyl)morpholin-4-ium diiodide] was run?
**A.** 291%

**Q.** Which activity at 10 µM does the source give for C[n+]1cccc(C2=C(c3ccccc3)c3ccc(OCCN4CCOCC4)cc3C2=O)c1 [Example 41, 1-methyl-3-{6-[2-(morpholin-4-yl)ethoxy]-1-oxo-3-phenyl-1H-inden-2-yl}pyridin-1-ium iodide] here?
**A.** 329%

**Q.** How did the activity at 10 µM turn out when O=C1C(c2ccc[n+]([O-])c2)=C(c2ccccc2)c2ccc(OCC[N+]3([O-])CCOCC3)cc21 [Example 43, 4-oxido-4-(2-{[2-(1-oxidopyridin-1-ium-3-yl)-1-oxo-3-phenyl-1H-inden-6-yl]oxy}ethyl)morpholin-4-ium] was run?
**A.** 125%
